One experiment has as its system EAE. The experiment is described as follows: EAE model (multiple sclerosis) in C57BL/6 mice. The format is in vivo, mouse. Here is the method:
As an example, C57BL/6 mice were immunized to induce EAE with 1) a subcutaneous injection on flanks of […] MOG38-50 peptide in 0.1 ml PBS emulsified in an equal volume of complete Freund's adjuvant containing […] mycobacterium tuberculosis H37RA, and 2) an intravenous injection of 100 ng pertussis toxin in 0.1 ml PBS. A second injection of pertussis toxin (100 ng per mouse) was given 48 hr later.
Mice were subsequently injected i.p. with 300 μg BA-039 (n=4) or vehicle (n=3) daily beginning with the first day of EAE onset. Mice were monitored daily for disease score up to 16 days.
In a second set of this experiment, treatment of the mice was stopped on the 16th day of the study and further monitored for additional 22 days. […] By contrast, the BA-039 treated group remained devoid of disease (average clinical score 1-2) (data not shown, manuscript in preparation). […] The data provide important information about treatment regimen with Rel inhibitors for multiple sclerosis patients in the future.

A further experiment deals with L363 cells. The experiment is described as follows: Tumor cell cytotoxicity assay, multiple myeloma cell line L363. The format is cell-based. The conditions noted are these: L363 cells (active classical pathway), 48 hours. Here is the method: (§1) For example, the “classical” Rel pathway is crucial for the survival of L363 cell line, whereas the “alternative” pathway is important for the survival of RPMI8226 cells.
(§2) The MM and DLBCL cell lines were used to test for tumor cell cytotoxicity by the Rel inhibitor analogs. As an example, three MM cell lines were treated with a Rel inhibitor for 48 hours and cell numbers were enumerated as percentage of control group.

The subject of another experiment is RPMI8226 cells. The experiment is described as follows: Tumor cell cytotoxicity assay, multiple myeloma cell line RPMI8226. The format is cell-based. The conditions noted are these: RPMI8226 cells (active alternative pathway), 48 hours. Here is the method:
as §1, §2

The subject of the next experiment is MM1-144 cells. The experiment is described as follows: Tumor cell cytotoxicity assay, multiple myeloma cell line MM1-144. The format is cell-based. To be noted: MM1-144 cells (use both pathways), 48 hours. As for the experimental part: as §1, §2
The next experiment has as its system DLBCL tumor cells. The experiment is described as follows: DLBCL xenograft tumor model in NOD/SCID mice. The format is in vivo, mouse. As for the experimental part: Xenograft tumor models have been widely used to study human cancer. […] The experiment used non-obese diabetic (NOD)/SCID mice for testing Rel inhibitor analogs.
Male NOD/SCID mice were injected with 3-5×10^6 of DLBCL tumor cells subcutaneously in each flank area. When tumors were palpable (˜12 days after injection), the mice were randomized to receive either vehicle or test compounds corresponding to Rel inhibitors of the invention. In some experiments, DHMEQ was used as a benchmark compound. Compounds were administrated via i.p. at 12 to 24 mg/kg, three days per week for 2-3 weeks. Tumor volume was measured twice a week.

Experiment [1] relates to IL-2. The experiment is described as follows: IL-2 expression, intracellular cytokine staining and flow cytometry in CD4+ T cells. The format is cell-based, mouse or human. The conditions noted are these: anti-CD3+anti-CD28 for 6 hours, % cytokine-expressing CD4+ T cells; data not shown. Here is the method:
(§3) Since autoimmune diseases are associated with elevated levels of inflammatory cytokines, it is important to identify Rel inhibitors that can inhibit the expression of inflammatory cytokines. As c-Rel regulates the expression of several cytokines including IL-2, IFN-γ, and TNF, assays for these cytokines can be used to assess the anti-inflammatory effects of Rel inhibitor analogs. To perform such experiments, mouse splenocytes or human PBMCs were stimulated with anti-CD3+anti-CD28 for 6 hours to induce cytokine expression. Compounds were added at the beginning of the culture. Cytokines (IL-2, IFN-γ, and TNF) were measured by intracellular cytokine staining and flow cytometry and the % of cytokine-expressing cells within CD4+ T cell population was enumerated. Compounds at varying doses were tested.

For a further experiment, the system named is TNF. The experiment is described as follows: TNF expression, intracellular cytokine staining and flow cytometry in CD4+ T cells. The experiment is classed as cell-based, mouse or human. To be noted: anti-CD3+anti-CD28 for 6 hours, % cytokine-expressing CD4+ T cells; data not shown. Here is the method:
as §3

The subject of another experiment is IFN-γ. The experiment is described as follows: IFN-γ expression, intracellular cytokine staining and flow cytometry in CD4+ T cells. The experiment is classed as cell-based, mouse or human. The conditions noted are these: anti-CD3+anti-CD28 for 6 hours, % cytokine-expressing CD4+ T cells; data not shown. Here is the method:
as §3

A further experiment deals with CD69. The experiment is described as follows: Expression of non-c-Rel target genes. The format is cell-based, mouse or human.
The test system of experiment [2] is IL-2. The experiment is described as follows: IL-2 expression by ELISA in stimulated mouse splenocytes. The conditions noted are these: Splenocyte, mouse splenocytes stimulated with anti-CD3+anti-CD28, 0 to 20 μM, read-out: IC50 of IL2 inhibition. The experiment is classed as cell-based. As for the experimental part:
In yet another example, IL-2 expression was quantified by ELISA analysis. In these experiments, mouse splenocytes were stimulated with anti-CD3+anti-CD28, in the presence of varying doses of Rel inhibitors (from 0 to 20 μM).

For a further experiment, the system named is STZ-induced diabetes. The experiment is described as follows: Streptozotocin (STZ)-induced diabetes model. To be noted: 40 μg/mouse/day IP, day 0 to day 5, C57BL/6 mice; data not shown. The format is in vivo. As for the experimental part:
In yet another example, a Rel inhibitor compound was tested in Streptozotocin (STZ)-induced diabetes model. C57BL/6 (cRel+/+) mice were treated with low dose STZ for 5 days to induce diabetes, as indicated by glucose level above 300 mg/dl. c-Rel(−/−) mice were used as a control group. The Rel inhibitor (BA-001, 40 μg/mouse/day) or DMSO were injected IP to a group of five C57BL/6 mice for six consecutive days from day 0 to day 5. Glucose levels were determined at day 5, 7, 9, 12, 15, 19 and 27.

The subject of the next experiment is DLBCL tumor cell lines. The experiment is described as follows: DLBCL cytotoxicity assay. The experiment is classed as cell-based. To be noted: read-out: IC50 on DLBCL cytotoxicity assay. Here is the method: as §2
The IC50 was defined as the concentration that causes 50% cell death compared with control samples. […] In summary, tumor cell lines were utilized to select for Rel inhibitors with tumor cytoxicity activities. […] Those compounds with in vitro anti-tumor activity were further tested in vivo using xenograft tumor models.

SMILES strings stand for the structures. pIC50: −log10 of the molar value.

In the case of `COc1cc(OC)c2ccccc2c1C=C1C(=O)NC(=S)NC1=O` [BA-039, 5-((2,4-dimethoxynaphthalen-1-yl)methylene)-2-thioxodihydropyrimidine-4,6(1H,5H)-dione], in the experiment on EAE (300 μg i.p. daily from first day of EAE onset, up to 16 days, reduced from 2, vehicle rises 2 to 5), the disease score is listed as 1. Further, the average clinical score in the experiment with EAE (22 days after treatment stopped on 16th day, control group score 5) is reported as 1-2.
For `COc1ccc(C=C2C(=O)NC(=S)NC2=O)c(OC)c1` [BA-001, 5-(2,4-dimethoxybenzylidene)-2-thioxodihydro-pyrimidine-4,6(1H,5H)-dione], the results for the “growth inhibition (cell numbers as percentage of control group)” value with L363 cells, in the experiment on RPMI8226 cells and in the experiment with MM1-144 cells were “dose-dependent apoptosis”, “quite resistant” and “only partially inhibited”, respectively. For the same compound, in the experiment on DLBCL tumor cells (24 mg/Kg i.p., three days per week, NOD/SCID mice), the “tumor growth compared to vehicle controls” value is listed as “slowed the tumor growth”. For the same compound, the “anti-tumor potency compared with DHMEQ” value with DLBCL tumor cells (both 12 to 24 mg/kg doses, DLBCL xenograft mouse model) was “much better potency than DHMEQ”. In addition, the pIC50 with IL-2 [1] is ~5.22; with TNF, ~5.22; in the experiment with IFN-γ, ~5.22; in the experiment with IL-2 [2] it was 4.82. Besides, the “inhibitory effect toward non-c-Rel target genes (e.g. CD69)” value in the experiment with CD69 is listed as “no inhibitory effects”. Besides, in the experiment with STZ-induced diabetes, the “resistance to STZ-induced diabetes (glucose level)” value is listed as “resistant to STZ-induced diabetes”.
As for `COc1ccc(N2C(=O)/C(=C\c3c(OC)ccc4ccccc34)C(=O)NC2=S)cc1` [BA-030, 5-((2-methoxynaphthalen-1-yl)methylene)-1-(4-methoxyphenyl)-2-thioxodihydro-pyrimidine-4,6(1H,5H)-dione], the pIC50 in the experiment on DLBCL tumor cell lines was 5.40; in the experiment with IL-2 [2], 6.40.
Regarding `COc1ccc(C=C2C(=O)NC(=O)NC2=O)c2ccccc12` [BA-009, 5-((4-methoxynaphthalen-1-yl)methylene) pyrimidine-2,4,6(1H,3H,5H)-trione], the “tumor volume compared to vehicle controls” value in the experiment with DLBCL tumor cells (15 mg/kg i.p., three days per week, NOD/SCID mice) is given as “significantly smaller tumor volume”.
